Results on 16 molecules are retold here after patent US20070122422A1, “Sodium-independent small neutral amino acid transporter transporting L- and D- amino acids” (Japan Science and Technology Corporation, priority 2000, published 2007).

What all share (type): cell-based
The target in experiment [1] is T1, asc-1 of mouse (co-expressed with 4F2hc of mouse) (Mus musculus, UniProt P63115).
T1 construct: expressed in transfected cells; host or cells: Xenopus oocytes injected with cRNA
T1 sequence (P63115 1-530): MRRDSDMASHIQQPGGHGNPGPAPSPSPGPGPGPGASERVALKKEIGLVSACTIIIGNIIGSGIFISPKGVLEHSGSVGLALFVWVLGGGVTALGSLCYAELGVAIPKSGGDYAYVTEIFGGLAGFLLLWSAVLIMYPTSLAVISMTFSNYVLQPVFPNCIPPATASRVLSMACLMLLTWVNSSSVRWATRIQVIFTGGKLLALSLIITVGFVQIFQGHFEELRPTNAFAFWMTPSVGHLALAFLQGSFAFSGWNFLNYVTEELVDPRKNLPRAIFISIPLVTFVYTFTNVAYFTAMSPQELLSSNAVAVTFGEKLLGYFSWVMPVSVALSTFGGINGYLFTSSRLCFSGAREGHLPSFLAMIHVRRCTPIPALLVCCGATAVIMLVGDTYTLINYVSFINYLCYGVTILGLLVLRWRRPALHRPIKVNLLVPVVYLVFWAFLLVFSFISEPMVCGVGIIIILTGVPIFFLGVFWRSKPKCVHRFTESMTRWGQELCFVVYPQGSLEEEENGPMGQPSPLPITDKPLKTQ
T1 sequence (P10852 1-526 partner): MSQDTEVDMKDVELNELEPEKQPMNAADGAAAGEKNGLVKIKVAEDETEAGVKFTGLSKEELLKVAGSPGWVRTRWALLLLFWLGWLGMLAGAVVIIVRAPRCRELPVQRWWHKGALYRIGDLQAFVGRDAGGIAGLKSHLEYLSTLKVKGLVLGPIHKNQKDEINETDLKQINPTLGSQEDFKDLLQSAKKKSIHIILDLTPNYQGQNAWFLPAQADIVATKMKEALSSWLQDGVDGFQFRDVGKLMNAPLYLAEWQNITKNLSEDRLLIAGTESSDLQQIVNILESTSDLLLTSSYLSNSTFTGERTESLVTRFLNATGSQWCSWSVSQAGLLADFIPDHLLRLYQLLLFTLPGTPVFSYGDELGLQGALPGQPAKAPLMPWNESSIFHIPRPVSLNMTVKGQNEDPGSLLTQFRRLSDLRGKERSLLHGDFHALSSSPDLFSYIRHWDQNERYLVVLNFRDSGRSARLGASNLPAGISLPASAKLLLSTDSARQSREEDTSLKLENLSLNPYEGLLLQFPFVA
The experiment is described as follows: Inhibition of 14C-alanine incorporation by added amino acids and analogs in oocytes co-expressing asc-1 and 4F2hc. To be noted: 14C-alanine 50 μM; 5 mM non-labeled compound; Na+-free uptake solution. The method, then:
(§1) Into oocytes were injected 12 ng of asc-1 gene cRNA of mouse, 13 ng of 4F2hc gene cRNA of mouse or 12 ng asc-1 gene cRNA of mouse/13 ng of 4F2hc gene cRNA of mouse to express followed by incubating for 3 days. […] Thus, the oocytes were allowed to stand for 30 minutes in a Na^+-free uptake solution [100 mM choline chloride, 2 mM potassium chloride, 1.8 mM calcium chloride, 1 mM magnesium chloride, 5 mM HEPES; pH 7.4] containing ^14C-alanine (100 μM) as a substrate and the rate of the substrate incorporated into the cells was measured by way of counting the radioactivity incorporated thereinto.
In an experiment of incorporation of alanine by oocytes into which both asc-1 gene cRNA of mouse and 4F2hc gene cRNA of mouse were injected, influence of addition of various amino acid and analogs thereof was investigated.
In an experiment of incorporation of alanine, a method according to that mentioned in the above Example 2(1) was carried out using oocytes into which both asc-1 gene cRNA of mouse and 4F2hc gene cRNA of mouse were injected. Here, a Na^+-free uptake solution was used and incorporation of ^14C-alanine (50 μM) was measured in the presence and absence of 5 mM of various compounds (non-labeled).

The target of experiment [2] is T1, asc-1 of mouse (co-expressed with 4F2hc of mouse). The experiment is described as follows: Release of preloaded 14C-alanine from oocytes co-expressing asc-1 and 4F2hc on extracellular addition of compound. To be noted: 100 μM compound added to Na+-free uptake solution; room temperature. As for the experimental part: Release of a preloaded ^14C-alanine mediated by asc-1 was checked in the oocytes into which both asc-1 gene cRNA and 4F2hc gene cRNA of mouse were injected together. ^14C-Alanine (−3nCi) of 100 μM in an amount of 100 nl was injected into the oocytes into which both asc-1 gene cRNA and 4F2hc gene cRNA of mouse were injected together, washed with an ice-cooled Na^+-free uptake solution containing no alanine and transferred to a Na^+-free uptake solution to which alanine (100 μM) was added or not added at room temperature (18° C.-22° C.) and the amount of ^14C-alanine released outside the cells was measured.
In oocytes into which cRNA of asc-1 gene and cRNA of 4F2hc gene of mouse were injected together, release of preloaded ^14C-alanine mediated by asc-1 was investigated whereupon it was checked whether the compound which inhibited the incorporation of ^14C-alanine mediated by asc-1 was a substrate of asc-1.
^14C-Alanine (−3nCi) of 100 μM in an amount of 100 nl was injected into the oocytes into which both asc-1 gene cRNA and 4F2hc gene cRNA of mouse were injected together, washed with an ice-cooled Na^+-free uptake solution containing no alanine and transferred to a Na^+-free uptake solution to which amino acid or amino acid analog (100 μM) was added or not added at room temperature (18° C.-22° C.) and the amount of ^14C-alanine released outside the cells was measured.
Black bars in FIG. 18 are the case where there were used oocytes into which cRNA of mouse asc-1 gene and cRNA of mouse 4F2hc gene were injected while white bars are the case where there were used oocytes into which water was injected instead of cRNA as a control.

Experiment [3] shares this target. Kind of experiment: Incorporation of radiolabeled amino acids and analogs by oocytes co-expressing asc-1 and 4F2hc. To be noted: for incorporation into the oocytes as substrate: radiolabeled substrate, oocytes expressing both asc-1 and 4F2hc, Na+-free uptake solution; for transport by asc-1 (affinity in words): summary statement, asc-1 co-existing with 4F2hc. As for the experimental part:
Incorporation of alanine when asc-1 gene cRNA of mouse was solely expressed in oocytes of Xenopus and when asc-1 gene cRNA of mouse and 4F2hc gene cRNA of mouse were expressed in oocytes of Xenopus together was compared.
as §1
In an experiment of incorporation of alanine by oocytes into which both asc-1 gene cRNA and 4F2hc gene cRNA of mouse were injected together, influence of the salt added to the medium was investigated.
The experiment of incorporation of alanine was carried out in accordance with the method mentioned in the above Example 2(1) using oocytes into which both asc-1 gene cRNA and 4F2hc gene cRNA of mouse were injected together. When the influence of sodium ion was checked however, a standard uptake solution (where 100 mM choline chloride was substituted with 100 mM sodium chloride) was used in place of the Na^+-free uptake solution as the uptake solution. When the influence of chlorine ion was checked, a gluconic acid uptake solution (where 100 mM sodium chloride was substituted with 100 mM sodium gluconate) was used in place of the standard uptake solution.
Incorporation by asc-1 was investigated using various amino acids and analogs thereof as substrates. Experiment for incorporation of various amino acids and analogs thereof was carried out according to the method mentioned in the above Example 2(1) using oocytes into which asc-1 gene cRNA of mouse and 4F2hc gene cRNA of mouse were injected together. With regard to the substrates however, various compounds labeled with radioactivity were used in place of ^14C-alanine.
Influence of pH was checked in an experiment for incorporation of alanine by oocytes into which both asc-1 gene cRNA and 4F2hc gene cRNA of mouse were injected together. With regard to an experiment for incorporation of alanine, the method according to that mentioned in the above Example 2 (1) was carried out using oocytes into which both asc-1 gene cRNA of mouse and 4F2hc gene cRNA of mouse were injected together.

For experiment [4] the target is unchanged. The experiment is described as follows: Michaelis-Menten kinetic test of substrate incorporation by Xenopus oocytes co-expressing asc-1 and 4F2hc. To be noted: ratio to the Vmax value for alanine (defined as 1.00). As for the experimental part:
as §1
A Michaelis-Menten kinetic test was carried out for a sodium-independent small neutral amino acid transporter asc-1 which transports L- and D-amino acids. By checking the changes in the rate of incorporation of alanine due to the difference in concentration of the alanine substrate, the Michaelis-Menten kinetic test of asc-1 was carried out.
An experiment for the incorporation of alanine was carried out according to the method mentioned in the above Example 2(1) using the oocytes into which both asc-1 gene cRNA of mouse and 4F2hc gene cRNA of mouse were injected.
With regard to amino acids other than alanine which were used as substrates, a Michaelis-Menten kinetic was carried out as well in the same manner whereupon Km values and Vmax values were calculated. Each Vmax value in Table 1 was shown in terms of the ratio when the Vmax value of alanine was defined as 1.00.

Turning to `CN[C@@H](C)C(=O)O` [N-methylalanine], the “inhibition of incorporation of 14C-alanine mediated by asc-1” value (shortened to “inhibition”) in experiment [1] is on record as “did not affect”.
`CC(C)(N)C(=O)O` [AIB, α-aminoisobutyric acid]: the “increase in the release of preloaded 14C-alanine” value (from here on “increase in the release”) in experiment [2] was “significant increase”. In experiment [3], the “incorporation into the oocytes as substrate” value (“incorporation into the oocytes” below) was “big incorporation” and the “transport by asc-1 (affinity in words)” value was “transports”. In addition, the Vmax in experiment [4] was 0.81. In addition, in experiment [1], the “inhibition” value is listed as “inhibited”.
Consider `NC1(C(=O)O)CC2CCC1C2` (stereo not shown) [BCH, 2-amino-2-norbornane-carboxylic acid], for which, in experiment [1], the “inhibition” value is recorded as “did not affect”.
For the molecule `N[C@H](CS)C(=O)O` [D-cysteine], the “increase in the release” value in experiment [2] was “significant increase”. The “transport by asc-1 (affinity in words)” value in experiment [3] is given as “transports”. For the same molecule, the “inhibition” value in experiment [1] is on record as “mediumly inhibited”.
As for γ-aminoisobutyric acid, in experiment [1], the “inhibition” value is “did not affect”.
Consider `CC(C)[C@H](N)C(=O)O` [L-Valine], for which, in experiment [2], the “increase in the release” value is on record as “medium increase”. Besides, the “transport by asc-1 (affinity in words)” value in experiment [3] is listed as “lowly affinitive”. Moreover, in experiment [4], the Vmax is 1.17.
As for `NCCC(=O)O` [β-Alanine], the “increase in the release” value in experiment [2] is given as “significant increase”. Further, in experiment [3], the “incorporation into the oocytes” value is listed as “big incorporation” and the “transport by asc-1 (affinity in words)” value was “transports”. Further, the Vmax in experiment [4] was found to be 0.92. Further, the “inhibition” value in experiment [1] was “inhibited”.
The corresponding values for `N[C@H](CO)C(=O)O` [D-Serine] are “significant increase”, “big incorporation”, “highly affinitive”, 1.22 and “strongly inhibited”.
As to `N[C@@H](Cc1c[nH]cn1)C(=O)O` [L-Histidine], the “transport by asc-1 (affinity in words)” value in experiment [3] was “lowly affinitive”. Besides, the Vmax in experiment [4] turned out to be 0.79.
The corresponding values for `N[C@@H](Cc1ccccc1)C(=O)O` [L-Phenylalanine] are “lowly affinitive” and 1.09.
As for `C[C@H](O)[C@@H](N)C(=O)O` [D-Threonine], the “increase in the release” value in experiment [2] is “significant increase”.
Consider `CSCC[C@H](N)C(=O)O` [L-Methionine], for which the “increase in the release” value in experiment [2] is “medium increase”. Moreover, the “transport by asc-1 (affinity in words)” value in experiment [3] is “lowly affinitive”. The Vmax in experiment [4] turned out to be 1.15.
For the molecule `COC(=O)[C@H](C)N` [alanine methyl ester], in experiment [2], the “increase in the release” value was “significant increase”. Moreover, the “transport by asc-1 (affinity in words)” value in experiment [3] was “transports”. Moreover, in experiment [1], the “inhibition” value was “inhibited”.
For the molecule `C[C@@H](N)C(=O)O` [D-Alanine], the “increase in the release” value in experiment [2] is “significant increase”. In experiment [3], the “incorporation into the oocytes” value was “big incorporation” and the “transport by asc-1 (affinity in words)” value is recorded as “transports”. In addition, the Vmax in experiment [4] was 0.86. For the same molecule, the “inhibition” value in experiment [1] is “strongly inhibited”.
For the molecule `CC[C@H](C)[C@H](N)C(=O)O` [L-Isoleucine], the “transport by asc-1 (affinity in words)” value in experiment [3] was “lowly affinitive”. Besides, the Vmax in experiment [4] was found to be 1.33.
Turning to `CNCC(=O)O` [sarcosine], the “inhibition” value in experiment [1] is “did not affect”.
